Laboratory results from patent US10392368B2, “Pyrazolo and triazolo bicyclic compounds as JAK kinase inhibitors” (THERAVANCE BIOPHARMA R&D IP, LLC, priority 2017, dated 2019).

Experiments:
JAK3 = biological target: T1, JAK3 (Homo sapiens, UniProt P52333); assay: Biochemical JAK3 kinase assay (LanthaScreen); design: GST; purchased Life Technologies; details: for Ki: read-out: JAK 3 (pKi) (converted); for JAK3 (pKi)-JAK1 (pKi): selectivity JAK3 over JAK1, difference of pKi
T1 sequence (P52333 1-1124): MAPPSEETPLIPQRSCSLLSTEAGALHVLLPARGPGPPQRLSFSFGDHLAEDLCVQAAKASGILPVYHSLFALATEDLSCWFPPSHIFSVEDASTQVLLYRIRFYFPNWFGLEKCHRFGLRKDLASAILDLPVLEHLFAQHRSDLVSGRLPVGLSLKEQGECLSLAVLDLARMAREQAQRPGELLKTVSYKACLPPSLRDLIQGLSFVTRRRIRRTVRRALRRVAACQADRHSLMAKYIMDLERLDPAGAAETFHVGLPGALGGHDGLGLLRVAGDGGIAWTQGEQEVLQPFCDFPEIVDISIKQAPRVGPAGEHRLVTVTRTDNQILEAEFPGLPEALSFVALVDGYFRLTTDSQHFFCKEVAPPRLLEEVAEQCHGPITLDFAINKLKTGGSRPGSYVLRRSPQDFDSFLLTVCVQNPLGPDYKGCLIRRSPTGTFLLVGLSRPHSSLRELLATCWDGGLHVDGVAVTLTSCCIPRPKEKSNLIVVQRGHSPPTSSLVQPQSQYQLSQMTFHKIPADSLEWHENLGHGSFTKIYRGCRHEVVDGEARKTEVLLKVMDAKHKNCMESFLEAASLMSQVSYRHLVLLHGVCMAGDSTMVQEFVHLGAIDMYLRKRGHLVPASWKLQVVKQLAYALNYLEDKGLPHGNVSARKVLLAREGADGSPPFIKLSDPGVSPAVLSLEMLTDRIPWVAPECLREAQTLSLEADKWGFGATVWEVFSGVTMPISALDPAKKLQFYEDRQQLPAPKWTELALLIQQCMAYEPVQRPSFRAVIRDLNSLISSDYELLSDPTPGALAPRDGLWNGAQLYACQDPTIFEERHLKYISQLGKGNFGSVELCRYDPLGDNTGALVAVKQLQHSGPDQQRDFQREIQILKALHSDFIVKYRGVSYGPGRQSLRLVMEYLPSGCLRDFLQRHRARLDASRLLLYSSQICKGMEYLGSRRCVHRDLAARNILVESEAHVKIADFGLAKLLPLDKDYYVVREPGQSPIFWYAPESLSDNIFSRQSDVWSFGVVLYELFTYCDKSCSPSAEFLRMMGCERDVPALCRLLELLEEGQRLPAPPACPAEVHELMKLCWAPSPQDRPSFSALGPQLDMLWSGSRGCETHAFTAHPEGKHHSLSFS
Outline: (§1)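 TR-FRET read-out: terbium anti-pSTAT1 (pTyr701) antibody, 2 nM, with 10 mM EDTA quench, emission ratio 520/495 nm. GST-JAK phosphorylates GFP-STAT1 peptide for 1 h at ambient temperature after 1 h compound pre-incubation. pIC50 from dose-response converted to pKi by Cheng-Prusoff.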

JAK2 = biological target: T2, JAK2 (Homo sapiens, UniProt O60674); assay: Biochemical JAK2 kinase assay (LanthaScreen); details: for Ki: read-out: JAK 2 (pKi) (converted)
T2 construct: GST; purchased Life Technologies
Outline: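 GST-tagged recombinant JAK2 pre-incubated 1 h at ambient temperature with compound and GFP-STAT1 peptide in HEPES pH 7.5/MgCl2 buffer, then ATP added for a 1 h reaction with 1% DMSO. TR-FRET read after EDTA and Tb-anti-pSTAT1 (pTyr701) addition; IC50 from 4-parameter fit, converted to pKi by Cheng-Prusoff.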

JAK1 = biological target: T3, JAK1 (Homo sapiens, UniProt P23458); assay: Biochemical JAK1 kinase assay (LanthaScreen); details: for Ki: read-out: JAK 1 (pKi) (converted)
T3 construct: GST; purchased Life Technologies
Outline: as §1

Tyk2 = biological target: T4, Tyk2 (Homo sapiens, UniProt P29597); assay: Biochemical Tyk2 kinase assay (LanthaScreen); details: for Ki: read-out: Tyk 2 (pKi) (converted)
T4 construct: GST; purchased Life Technologies
Outline: as §1

[1] = test system: IL-2 stimulated pSTAT5 in Tall-1 T cells; assay: Cellular JAK3 potency assay: inhibition of IL-2 stimulated pSTAT5 in Tall-1 T cells; type: cell-based, human; details: for IC50: Homo sapiens, TALL-1, IL-2 stimulated pSTAT5, Tall-1 T cells, read-out: Tall-1 (pIC50) (converted); for Tall-1 (pIC50): IL-2 stimulated pSTAT5, Tall-1 T cells
Outline: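 Tall-1 human T cells (45,000/well) in phenol red-free DMEM with 10% FBS were preincubated with compound 1 h at 37 °C, then stimulated with IL-2 (final 300 ng/ml) for 30 min. Lysate pSTAT5 read by AlphaLisa; IC50 from inhibition curves, reported as pIC50 (mean±SD).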

T4 sequence (P29597 whole entry): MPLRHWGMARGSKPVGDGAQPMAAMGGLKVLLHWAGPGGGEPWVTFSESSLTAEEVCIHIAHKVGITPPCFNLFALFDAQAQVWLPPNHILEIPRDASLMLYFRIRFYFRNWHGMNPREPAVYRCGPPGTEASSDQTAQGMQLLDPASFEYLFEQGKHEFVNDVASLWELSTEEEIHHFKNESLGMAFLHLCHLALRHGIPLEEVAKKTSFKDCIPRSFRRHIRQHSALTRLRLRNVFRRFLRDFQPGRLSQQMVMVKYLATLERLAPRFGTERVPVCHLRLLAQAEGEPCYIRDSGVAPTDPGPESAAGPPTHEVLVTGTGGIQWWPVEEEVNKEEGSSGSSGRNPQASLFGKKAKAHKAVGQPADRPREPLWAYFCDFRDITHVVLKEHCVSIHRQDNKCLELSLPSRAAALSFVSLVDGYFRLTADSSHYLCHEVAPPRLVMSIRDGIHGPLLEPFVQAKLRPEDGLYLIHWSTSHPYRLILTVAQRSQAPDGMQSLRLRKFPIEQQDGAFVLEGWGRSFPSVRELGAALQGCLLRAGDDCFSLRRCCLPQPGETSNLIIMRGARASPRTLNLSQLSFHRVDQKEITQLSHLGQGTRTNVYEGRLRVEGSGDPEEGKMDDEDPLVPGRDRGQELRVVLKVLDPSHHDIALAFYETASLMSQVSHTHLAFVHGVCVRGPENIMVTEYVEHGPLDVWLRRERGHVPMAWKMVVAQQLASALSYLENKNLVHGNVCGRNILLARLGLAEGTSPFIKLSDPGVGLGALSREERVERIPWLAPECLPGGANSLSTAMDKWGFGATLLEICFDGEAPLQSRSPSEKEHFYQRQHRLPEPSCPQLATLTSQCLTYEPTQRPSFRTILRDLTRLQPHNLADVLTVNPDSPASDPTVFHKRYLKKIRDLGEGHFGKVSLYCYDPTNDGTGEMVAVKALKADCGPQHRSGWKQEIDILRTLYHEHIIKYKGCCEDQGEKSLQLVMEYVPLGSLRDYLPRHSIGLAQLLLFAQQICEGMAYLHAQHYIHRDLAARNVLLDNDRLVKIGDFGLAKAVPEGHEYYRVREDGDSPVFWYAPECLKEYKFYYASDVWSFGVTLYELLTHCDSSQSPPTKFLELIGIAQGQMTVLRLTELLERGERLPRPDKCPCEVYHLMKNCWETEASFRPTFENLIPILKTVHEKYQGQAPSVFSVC
T3 sequence (P23458 whole entry): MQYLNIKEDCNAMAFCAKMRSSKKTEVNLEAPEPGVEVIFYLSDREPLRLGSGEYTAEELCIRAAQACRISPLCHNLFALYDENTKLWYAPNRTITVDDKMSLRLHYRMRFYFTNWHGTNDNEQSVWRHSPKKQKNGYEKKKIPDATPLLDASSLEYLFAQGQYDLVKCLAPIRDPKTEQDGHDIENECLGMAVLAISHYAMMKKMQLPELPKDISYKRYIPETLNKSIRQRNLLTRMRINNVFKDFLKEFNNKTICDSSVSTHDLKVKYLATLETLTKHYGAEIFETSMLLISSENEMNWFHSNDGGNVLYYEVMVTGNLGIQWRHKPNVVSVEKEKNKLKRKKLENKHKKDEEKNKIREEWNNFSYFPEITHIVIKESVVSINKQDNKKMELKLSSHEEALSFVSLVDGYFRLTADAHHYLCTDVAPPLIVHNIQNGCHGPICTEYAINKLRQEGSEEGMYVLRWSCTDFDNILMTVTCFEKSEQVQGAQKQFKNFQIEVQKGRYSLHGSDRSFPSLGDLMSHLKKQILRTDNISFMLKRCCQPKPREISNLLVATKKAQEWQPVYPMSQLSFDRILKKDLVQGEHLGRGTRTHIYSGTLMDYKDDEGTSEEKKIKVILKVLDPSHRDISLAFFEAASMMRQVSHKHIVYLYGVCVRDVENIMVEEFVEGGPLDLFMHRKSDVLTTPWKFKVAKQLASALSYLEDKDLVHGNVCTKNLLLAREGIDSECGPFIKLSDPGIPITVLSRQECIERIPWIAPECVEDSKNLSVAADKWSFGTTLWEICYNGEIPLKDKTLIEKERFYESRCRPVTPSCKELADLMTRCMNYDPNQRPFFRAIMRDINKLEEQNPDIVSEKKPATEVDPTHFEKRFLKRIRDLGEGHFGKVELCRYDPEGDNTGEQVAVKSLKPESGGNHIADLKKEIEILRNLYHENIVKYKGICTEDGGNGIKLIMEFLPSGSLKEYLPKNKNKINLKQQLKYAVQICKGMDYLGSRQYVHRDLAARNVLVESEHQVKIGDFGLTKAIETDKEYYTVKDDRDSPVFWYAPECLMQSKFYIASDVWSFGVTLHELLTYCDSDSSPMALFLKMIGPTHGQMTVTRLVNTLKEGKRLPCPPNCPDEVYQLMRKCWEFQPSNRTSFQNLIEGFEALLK
T2 sequence (O60674 whole entry): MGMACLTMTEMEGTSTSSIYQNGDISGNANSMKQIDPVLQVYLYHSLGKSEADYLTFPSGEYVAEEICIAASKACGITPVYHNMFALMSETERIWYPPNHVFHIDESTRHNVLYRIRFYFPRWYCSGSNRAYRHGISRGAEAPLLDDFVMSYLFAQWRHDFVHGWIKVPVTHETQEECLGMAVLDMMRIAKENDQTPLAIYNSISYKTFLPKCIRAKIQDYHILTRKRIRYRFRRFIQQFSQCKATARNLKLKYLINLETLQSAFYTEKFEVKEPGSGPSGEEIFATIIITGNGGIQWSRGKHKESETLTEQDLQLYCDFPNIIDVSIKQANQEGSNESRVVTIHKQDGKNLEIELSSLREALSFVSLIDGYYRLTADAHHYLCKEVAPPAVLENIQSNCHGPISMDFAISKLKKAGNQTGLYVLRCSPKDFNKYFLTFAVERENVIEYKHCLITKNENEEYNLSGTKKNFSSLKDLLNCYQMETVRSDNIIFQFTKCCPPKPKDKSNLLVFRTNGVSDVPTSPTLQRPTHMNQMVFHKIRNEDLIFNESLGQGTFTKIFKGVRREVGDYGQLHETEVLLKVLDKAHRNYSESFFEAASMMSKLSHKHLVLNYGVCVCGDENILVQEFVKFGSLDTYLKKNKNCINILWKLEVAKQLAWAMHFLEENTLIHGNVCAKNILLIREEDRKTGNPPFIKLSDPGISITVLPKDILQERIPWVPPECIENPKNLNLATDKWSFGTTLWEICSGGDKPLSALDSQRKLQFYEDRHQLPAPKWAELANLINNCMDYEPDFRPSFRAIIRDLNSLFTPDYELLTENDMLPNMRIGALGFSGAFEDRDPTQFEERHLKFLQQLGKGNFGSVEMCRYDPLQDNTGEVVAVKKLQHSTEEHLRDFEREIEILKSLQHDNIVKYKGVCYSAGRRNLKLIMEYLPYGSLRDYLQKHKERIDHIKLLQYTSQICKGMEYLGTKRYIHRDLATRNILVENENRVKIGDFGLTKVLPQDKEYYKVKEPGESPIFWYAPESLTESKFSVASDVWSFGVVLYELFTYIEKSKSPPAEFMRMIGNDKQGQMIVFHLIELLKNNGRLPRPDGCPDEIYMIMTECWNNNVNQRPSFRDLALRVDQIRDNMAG

| Structure (SMILES) | Ki (JAK3) | JAK3 (pKi)-JAK1 (pKi) (JAK3) | Ki (JAK2) | Ki (JAK1) | Ki (Tyk2) | IC50 [1] | JAK 3 (pKi) (JAK3) | JAK 2 (pKi) (JAK2) | JAK 1 (pKi) (JAK1) | Tyk 2 (pKi) (Tyk2) | Tall-1 (pIC50) [1] |
| --- | --- | --- | --- | --- | --- | --- | --- | --- | --- | --- | --- |
| C=CC(=O)N1CCC(Oc2cc(-c3ccc(O)c(F)c3)nc3[nH]ncc23)CC1 [Compound 6-18] | < 0.1 nM | A (a value of 3 or above) | > 100 nM | > 100 nM | > 100 nM | 31.6 to 200 nM | – | – | – | – | – |
| CN(C)C/C=C/C(=O)N1CCC(Oc2cc(-c3ccc(O)c(F)c3)cc3[nH]ncc23)CC1 [Compound 6-20] | 0.1 to 1 nM | B (a value of 2.3 to 3) | 1 to 10 nM | 10 to 100 nM | > 100 nM | 31.6 to 200 nM | – | – | – | – | – |
| C=CC(=O)N1CCC(Oc2nc(-c3ccc(O)c(Cl)c3)cc3[nH]ncc23)CC1 [Compound 6-21] | – | B (a value of 2.3 to 3) | – | – | – | – | B (a pKi value between 9 and 10 (Ki between 1 nM and 0.1 nM)) | D (a pKi value between 7 and 8 (Ki between 100 nM and 10 nM)) | D (a pKi value between 7 and 8 (Ki between 100 nM and 10 nM)) | E (a pKi value of 7 or below (Ki of 100 nM or above)) | B (a pIC50 value between 6.7 (included) and 7.5 (IC50 between 200 nM and 32 nM)) |
| C=CC(=O)N1CCC(C)(Nc2cc(-c3ccc(O)cc3)cc3[nH]ncc23)CC1 [Compound 7-2] | – | A (a value of 3 or above) | – | – | – | – | B (a pKi value between 9 and 10 (Ki between 1 nM and 0.1 nM)) | D (a pKi value between 7 and 8 (Ki between 100 nM and 10 nM)) | E (a pKi value of 7 or below (Ki of 100 nM or above)) | E (a pKi value of 7 or below (Ki of 100 nM or above)) | A (a pIC50 value≥7.5 (IC50≤32 nM)) |
| C=CC(=O)N1CCC(N(C)c2cc(-c3ccc(O)cc3)cc3[nH]ncc23)CC1 [Compound 7-3] | – | A (a value of 3 or above) | – | – | – | – | B (a pKi value between 9 and 10 (Ki between 1 nM and 0.1 nM)) | E (a pKi value of 7 or below (Ki of 100 nM or above)) | E (a pKi value of 7 or below (Ki of 100 nM or above)) | E (a pKi value of 7 or below (Ki of 100 nM or above)) | B (a pIC50 value between 6.7 (included) and 7.5 (IC50 between 200 nM and 32 nM)) |
| C=CC(=O)N1CCC(Nc2cc(-c3ccc(O)cc3)cc3[nH]ncc23)CC1 [Compound 7-4] | 0.1 to 1 nM | B (a value of 2.3 to 3) | 1 to 10 nM | 10 to 100 nM | > 100 nM | < 31.6 nM | – | – | – | – | – |
| C=CC(=O)N1CCC(N(C)c2cc(-c3ccc(O)c(Cl)c3)cc3[nH]ncc23)CC1 [Compound 7-7] | – | A (a value of 3 or above) | – | – | – | – | B (a pKi value between 9 and 10 (Ki between 1 nM and 0.1 nM)) | D (a pKi value between 7 and 8 (Ki between 100 nM and 10 nM)) | E (a pKi value of 7 or below (Ki of 100 nM or above)) | E (a pKi value of 7 or below (Ki of 100 nM or above)) | B (a pIC50 value between 6.7 (included) and 7.5 (IC50 between 200 nM and 32 nM)) |
| CN(C)C/C=C/C(=O)N1CCC(C)(Nc2cc(-c3ccc(O)c(Cl)c3)cc3[nH]ncc23)CC1 [Compound 7-8] | – | A (a value of 3 or above) | – | – | – | – | A (a pKi value≥10 (Ki≤0.1 nM)) | E (a pKi value of 7 or below (Ki of 100 nM or above)) | E (a pKi value of 7 or below (Ki of 100 nM or above)) | E (a pKi value of 7 or below (Ki of 100 nM or above)) | B (a pIC50 value between 6.7 (included) and 7.5 (IC50 between 200 nM and 32 nM)) |
| C=CC(=O)N1CCC(N(C)c2cc(-c3ccc(O)c(F)c3)cc3[nH]ncc23)CC1 [Compound 7-9] | < 0.1 nM | A (a value of 3 or above) | 10 to 100 nM | > 100 nM | > 100 nM | < 31.6 nM | – | – | – | – | – |
